Source: ChEMBL document CHEMBL1201862, “PubChem BioAssay data set” (2004)
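Briefly, cells in 96-well plates were exposed to five compound concentrations for 48 h, and endpoints were estimated by linear interpolation. Abbreviation: GI50, concentration required for 50% inhibition of growth.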 Calls of active or inactive are those of the source. Cut-off read from the data, not from the text of the source: active = GI50 up to about 1.1 µM and inactive = higher.

How the values were obtained:
Assay in all cases: growth of human tumour cells (NCI), 48 h
[1] = system: HOP-18
[2] = system: LXFL 529
[3] = system: M19-MEL
[4] = system: DMS-114
[5] = system: KM-20L2
[6] = system: DMS-273
[7] = system: DLD-1
[8] = system: XF498
[9] = system: RXF 631

Measured: GI50

Oc1ccc(Br)cc1/C=N/c1ccc(Oc2ccc(/N=C/c3cc(Br)ccc3O)cc2)cc1
inactive: [1] > 19.6 µM | [2] > 19.6 µM | [3] > 19.6 µM | [4] > 19.6 µM | [5] > 19.6 µM | [6] > 19.6 µM | [7] > 19.6 µM

CCCCCCCCCC(=O)OCC1OC(n2cc(F)c(=O)[nH]c2=O)C(NC(=O)OCc2ccccc2)C(OC(=O)CCCCCCCCC)C1O (configuration not stated)
inactive: [2] 24.7 µM | [3] 36.8 µM | [4] 18.8 µM | [5] > 10 µM | [6] 36.8 µM

CCCCc1c2c([n+]([O-])c3c1CCCC3)CCCC2
inactive: [2] > 100 µM | [3] 66.8 µM | [8] > 100 µM | [4] > 100 µM | [5] > 100 µM | [6] 96.6 µM

CC(=O)OC1OC2C(NC(=O)OC(C)(C)C)C1CC2(OCc1ccccc1)OCc1ccccc1 (configuration not stated)
inactive: [1] 19.5 µM | [2] 20 µM | [9] 33.4 µM | [3] 25.8 µM | [8] 18.9 µM | [4] 18.7 µM | [5] 19.9 µM | [6] 18.6 µM

Cc1cc2nc3c(C(OC4OC(CO)C(O)C(O)C4O)C(O)CO)nn(-c4ccc(F)cc4)c3nc2cc1C (configuration not stated)
inactive: [2] > 100 µM | [9] > 100 µM | [3] > 100 µM | [8] > 100 µM | [4] > 100 µM | [5] > 100 µM | [7] > 100 µM

CCOC(=O)C(=O)Nc1c(C)cccc1C
inactive: [1] > 100 µM | [2] > 100 µM | [3] > 100 µM | [8] > 100 µM | [4] > 100 µM | [5] > 100 µM | [6] > 100 µM | [7] > 100 µM

Cc1n[nH]c(=S)n(C)c1=S
inactive: [1] 27.2 µM | [2] > 100 µM | [9] > 100 µM | [3] > 100 µM | [8] > 100 µM | [4] > 100 µM | [5] > 100 µM | [6] > 100 µM | [7] > 100 µM

C[C@@]1(O)CC[C@]2(C)C3CCCC3[C@H]12 (some centres not stated)
inactive: [1] > 100 µM | [2] > 100 µM | [9] > 100 µM | [3] > 100 µM | [4] > 100 µM | [5] > 100 µM | [6] > 100 µM | [7] > 100 µM

COc1ccccc1C12OC(=O)C1(C)Oc1ccccc1C2=O (configuration not stated)
inactive: [2] > 100 µM | [9] 30.8 µM | [3] > 100 µM | [8] > 100 µM | [4] > 100 µM | [5] > 100 µM | [6] 22.5 µM | [7] > 100 µM

N#C/C(c1nc2ccccc2[nH]1)=c1\s/c(=C/c2ccc(Cl)cc2)c(=O)n1-c1ccccc1
inactive: [1] > 100 µM | [2] > 100 µM | [3] > 100 µM | [8] > 100 µM | [4] > 100 µM | [5] > 100 µM | [6] > 100 µM | [7] > 100 µM

Cc1cc([N+](=O)[O-])ccc1Sc1c2ccccc2nc2cc(Cl)ccc12
inactive: [1] 34.8 µM | [2] 31 µM | [9] 49.1 µM | [3] 43 µM | [8] 23 µM | [4] 25.4 µM | [5] 20.4 µM | [6] 26.9 µM | [7] 36.3 µM

CC1=C(C(=O)CC(=O)C(=O)Nc2ccccc2C)Sc2ccccc2N1
inactive: [1] > 100 µM | [3] > 100 µM | [5] > 81.3 µM | [6] > 100 µM | [7] > 45.8 µM

FC(F)(F)c1ccc(C2SCc3nc4ccccc4n32)cc1 (configuration not stated)
inactive: [1] > 100 µM | [2] 23.4 µM | [9] 2.96 µM | [3] 66.8 µM | [4] 7.21 µM | [6] 33.8 µM | [7] 7.24 µM

CN(C)C(=S)/N=c1\ssc(=S)n1Cc1ccncc1
inactive: [1] 17.7 µM | [2] 16.3 µM | [9] 3.8 µM | [3] 10.7 µM | [8] 5.66 µM | [4] 2.39 µM | [5] 32.9 µM | [6] 16.4 µM | [7] 16 µM

CC1=C(c2nc3ccccc3s2)C(=O)OC1(C)C
inactive: [2] > 100 µM | [9] > 100 µM | [3] > 100 µM | [8] > 100 µM | [4] > 100 µM | [5] > 100 µM | [6] > 100 µM | [7] > 100 µM
